Reference: patent US20140228366A1, “HETEROARYL-SUBSTITUTED PYRAZOLOPYRIDINES AND USE THEREOF AS SOLUBLE GUANYLATE CYCLASE STIMULATORS” (BAYER INTELLECTUAL PROPERTY GMBH, priority 2011, published 2014)

Columns and labels:
rabbit aorta rings = experiment: Vasorelaxant effect in vitro (phenylephrine-contracted aorta rings); conditions: Oryctolagus cuniculus, phenylephrine contraction, concentration reducing control contraction by 50%
Method: Rabbits are stunned by a blow to the neck and exsanguinated. The aorta is removed, freed from adhering tissue and divided into rings of a width of 1.5 mm. The rings are placed individually under an initial tension in 5 ml organ baths with Krebs-Henseleit solution which is at 37° C., is gassed with carbogen and has the following composition (in each case mM): sodium chloride: 119; potassium chloride: 4.8; calcium chloride dihydrate: 1; magnesium sulphate heptahydrate: 1.4; potassium dihydrogenphosphate: 1.2; sodium bicarbonate: 25; glucose: 10. The contractile force is determined with Statham UC2 cells, amplified and digitalized using A/D transducers (DAS-1802 HC, Keithley Instruments Munich), and recorded in parallel on linear recorders. To produce a contraction, phenylephrine is added to the bath cumulatively in increasing concentration. After several control cycles, the substance to be investigated is added in each further run in increasing dosage in each case, and the height of the contraction achieved is compared with the height of the contraction reached in the last preceding run. This is used to calculate the concentration needed to reduce the magnitude of the control value by 50% (IC50 value). The standard administration volume is 5 μl; the DMSO content in the bath solution corresponds to 0.1%.

[1] = target: T1, recombinant guanylate cyclase reporter cell line (Rattus norvegicus, UniProt P19686+P20595); experiment: Effect on a recombinant guanylate cyclase reporter cell line; type: cell-based
T1 construct: expressed in transfected cells; host or cells: recombinant reporter cell line
T1 sequence (P19686 1-690): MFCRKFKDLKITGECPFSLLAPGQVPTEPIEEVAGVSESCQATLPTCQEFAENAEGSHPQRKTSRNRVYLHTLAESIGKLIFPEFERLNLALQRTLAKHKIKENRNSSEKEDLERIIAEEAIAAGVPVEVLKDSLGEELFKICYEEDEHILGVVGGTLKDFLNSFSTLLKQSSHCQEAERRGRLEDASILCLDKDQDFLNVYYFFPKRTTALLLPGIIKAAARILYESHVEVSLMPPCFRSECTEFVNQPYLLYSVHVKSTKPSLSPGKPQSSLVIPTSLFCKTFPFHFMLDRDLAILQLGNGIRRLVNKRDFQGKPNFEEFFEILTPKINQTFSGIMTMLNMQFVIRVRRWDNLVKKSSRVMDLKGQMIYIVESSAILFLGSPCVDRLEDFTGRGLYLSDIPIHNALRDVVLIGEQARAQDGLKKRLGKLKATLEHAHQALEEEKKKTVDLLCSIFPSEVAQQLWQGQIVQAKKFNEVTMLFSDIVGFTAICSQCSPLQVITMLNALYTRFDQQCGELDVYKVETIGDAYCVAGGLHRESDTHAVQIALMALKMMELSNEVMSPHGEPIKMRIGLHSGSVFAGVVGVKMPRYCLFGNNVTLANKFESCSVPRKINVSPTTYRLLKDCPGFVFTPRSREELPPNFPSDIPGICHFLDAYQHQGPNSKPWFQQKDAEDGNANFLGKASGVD
T1 sequence (P20595 1-619): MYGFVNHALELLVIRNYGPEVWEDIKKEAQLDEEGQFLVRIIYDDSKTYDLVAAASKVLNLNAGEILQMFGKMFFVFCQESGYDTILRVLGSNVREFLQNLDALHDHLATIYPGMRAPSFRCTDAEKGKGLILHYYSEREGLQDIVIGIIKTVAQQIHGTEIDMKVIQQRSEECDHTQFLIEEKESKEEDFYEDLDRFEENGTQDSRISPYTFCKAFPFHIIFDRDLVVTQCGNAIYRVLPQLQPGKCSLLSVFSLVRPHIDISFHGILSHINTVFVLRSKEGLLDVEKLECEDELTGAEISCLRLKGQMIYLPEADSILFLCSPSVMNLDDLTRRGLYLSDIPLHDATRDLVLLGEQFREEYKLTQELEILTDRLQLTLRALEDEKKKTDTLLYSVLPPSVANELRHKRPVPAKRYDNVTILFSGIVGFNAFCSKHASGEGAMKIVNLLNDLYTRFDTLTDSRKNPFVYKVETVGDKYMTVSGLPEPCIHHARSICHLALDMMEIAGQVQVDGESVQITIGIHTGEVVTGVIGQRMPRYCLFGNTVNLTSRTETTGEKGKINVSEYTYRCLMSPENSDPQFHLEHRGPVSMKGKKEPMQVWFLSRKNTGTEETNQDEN
Method: The cellular activity of the compounds according to the invention is determined using a recombinant guanylate cyclase reporter cell line, as described in F. Wunder et al., Anal. Biochem. 339, 104-112 (2005).

[2] = Pharmacokinetic parameters following intravenous administration in rats; type: in vivo, male Wistar rats; conditions: intravenous administration of 0.3 mg/kg; for MRT / half-life: male, Wistar, rat, plasma; for half-life: terminal half life
Method: The pharmacokinetic parameters of the compounds of the formula (I) according to the invention are determined in male CD-1 mice, male Wistar rats and/or female beagles. The administration volume is 5 ml/kg for mice, 5 ml/kg for rats and 0.5 ml/kg for dogs. Intravenous administration is via a formulation of species-specific plasma/DMSO (99/1) in the case of mice and rats and via water/PEG400/ethanol (50/40/10 or 30/60/10) in the case of dogs. The removal of blood from rats is simplified by inserting a silicone catheter into the right Vena jugularis externa prior to substance administration. The surgical intervention takes place one day prior to the experiment with isofluran anesthesia and administration of an analgetic (atropine/rimadyl (3/1) 0.1 ml s.c.). Substance administration is as i.v. bolus in the case of mice, as i.v. bolus or via a 15-minute infusion in the case of rats and via a 15-minute infusion in the case of dogs. Removal of blood is after 0.033, 0.083, 0.17, 0.5, 1, 2, 3, 4, 6, 7 and 24 hours in the case of mice and, after a 15-minute infusion, after 0.083, 0.25, 0.28, 0.33, 0.42, 0.75, 1, 2, 3, 4, 6, 7 (or 8 in the case of Example 3) and 24 hours in the case of dogs and rats and after an i.v. bolus administration, after 0.033, 0.083, 0.17, 0.5, 1, 2, 3, 4, 6, 7 and 24 hours in the case of rats. For all species, oral administration of the dissolved substance via gavage is carried out based on a water/PEG400/ethanol formulation (50/40/10). Here, the removal of blood from rats and dogs is after 0.083, 0.17, 0.5, 0.75, 1, 2, 3, 4, 6, 7 and 24 hours. The blood is removed into heparinized tubes. The blood plasma is then obtained by centrifugation; if required, it can be stored at −20° C. until further processing.
An internal standard (ZK 228859) is added to the samples of the compounds of the formula (I) according to the invention, calibration samples and QCs, and the protein is precipitated using excess acetonitrile. After addition of an ammonium acetate buffer (0.01 M, pH 6.8) and subsequent vortexing, the mixture is centrifuged at 1000 g and the supernatant is examined by LC-MS/MS (API 4000, AB Sciex). Chromatographic separation is carried out on an Agilent 1100-HPLC. The injection volume is 10 μl. The separation column used is a Phenomenex Luna 5μ C8(2) 100A 50×2 mm, adjusted to a temperature of 40° C. A binary mobile phase gradient at 500 μl/min is used (A: 0.01M ammonium acetate buffer pH 6.8, B: 0.1% formic acid in acetonitrile): 0 min (90% A), 1 min (90% A), 3 min (10% A), 4 min (10% A), 4.50 min (90% A), 6 min (90% A). The temperature of the Turbo V ion source is 500° C. (Example 2), 400° C. (Example 3) or 450° C. (Example 6). The following MS instrument parameters are used: curtain gas 15 units (Examples 2 and 3) or 10 units (Example 6), ion spray voltage 4.8 kV, gas 1 45 units (Example 2) or 50 units (Examples 3 and 6), gas 2 35 units (Examples 2 and 6) or 40 units (Example 3), CAD gas 4 units (Examples 2 and 6) or 8 units (Example 3). The substances are quantified by peak heights or areas using extracted ion chromatograms of specific MRM experiments.
The plasma concentration/time plots determined are used to calculate the pharmacokinetic parameters such as AUC, Cmax, t112 (terminal half life), MRT (mean residence time) and CL (clearance), using the validated pharmacokinetic calculation program KinEx (Vers. 3).
Since the substance quantification is performed in plasma, it is necessary to determine the blood/plasma distribution of the substance in order to be able to adjust the pharmacokinetic parameters correspondingly. For this purpose, a defined amount of substance is incubated in heparinized whole blood of the species in question in a rocking roller mixer for 20 min. After centrifugation at 1000 g, the plasma concentration is measured (see above) and determined by calculating the quotient of the Cblood/Cplasma values.

IC50 (rabbit aorta rings) [nM]	MEC (minimum effective concentration) [1] [µM]	AUCnorm [2] [kg·h/L]	CLblood [2] [mL/min/kg]	MRT [2] [h]	half-life [2] [h]	Compound
234	1	13	2.17	7.9	6.1	CC1(C)C(=O)Nc2nc(-c3nn(Cc4ncccc4F)c4ncc(F)cc34)nnc21 [Example 2, 3-{5-Fluoro-1-[(3-fluoropyridin-2-yl)methyl]-1H-pyrazolo[3,4-b]pyridin-3-yl}-7,7-dimethyl-5,7-dihydro-6H-pyrrolo[2,3-e][1,2,4]triazin-6-one]
34	0.3	0.93	15.5	1.3	1	CC1(C)C(=O)Nc2nc(-c3nn(Cc4ncccc4F)c4ncc(F)cc34)nc(N)c21 [Example 3, 4-Amino-2-{5-fluoro-1-[(3-fluoropyridin-2-yl)methyl]-1H-pyrazolo[3,4-b]pyridin-3-yl}-5,5-dimethyl-5,7-dihydro-6H-pyrrolo[2,3-d]pyrimidin-6-one]
82	0.03	3.5	6.17	5.6	4.4	CC1(C)C(=O)Nc2nc(-c3nn(Cc4ncccc4F)c4ncc(F)cc34)ncc21 [Example 6, 2-{5-Fluoro-1-[(3-fluoropyridin-2-yl)methyl]-1H-pyrazolo[3,4-b]pyridin-3-yl}-5,5-dimethyl-5,7-dihydro-6H-pyrrolo[2,3-d]pyrimidin-6-one]
